Five compounds from US11964990B2, “1,3,4,7-tetrahydro-2H-pyrrolo[3′,2′:5,6]pyrido[2,3-b][1,4]oxazepine bcl-2 inhibitors” (AbbVie Inc., priority 2022, dated 2024) can be followed below.

The EC50 is the concentration that produces a half-maximal response. Low values mean higher potency in that assay, high ones lower potency in that assay.

Each structure is given as a SMILES string.

One experiment concerns Molt-4 cells. Put plainly: Cell viability counter screen assay (CellTiter-Glo) in Molt-4 cells. The format is cell-based. Conditions: 24 hours, 10% Human Serum, 50% decrease in cell viability. An excerpt: (§1) The acute lymphoblastic leukemia (ALL) human cell line RS4;11 (ATCC, Manassas VA) was used as the primary human cell line to assess the cellular activity of compound of the present Examples in vitro and their efficacy in vivo. BH3 profiling, a mitochondrial assay that classifies blocks in the intrinsic apoptotic pathway, has shown that RS4;11 cells were highly dependent on Bcl-2 protein for survival and were sensitive to a Bcl-2 inhibitor (Blood. 2008; 111(4):2300-2309). […] The acute lymphoblastic leukemia cell line Molt-4, which is derived from immature T-lymphoid cells (T-ALL), was used as a counter screen assay.
(§2) Frozen RS4;11 or Molt-4 cells (ATCC, Manassas, VA, USA) were thawed overnight in RPMI 1640 media (Thermo Fisher Scientific, Waltham, MA, USA) supplemented with 1% penicillin/streptomycin (Thermo Fisher Scientific, Waltham, MA, USA), and 10% Human Serum (Sigma, St. Louis, MO, USA). 3000 Cells (0.1×10^6/mL) were seeded in each well of 384-well plate and were treated for 24 hours in a humidified chamber with 5% CO2. Cell viability was determined by CellTiter-Glo as described by the manufacturer's instructions (Promega Corporation, Madison, WI, USA). Responses were determined as a percentage of the control treated cells and the effective concentration (EC50) to induce a 50% decrease in cell viability were determined from sigmoidal dose-response curves using Dotmatics (Dotmatics Software Company, Bishops Stortford, Hertfordshire, England).
In general terms: Counterscreens check selectivity or assay interference.

In a further experiment the test system is RS4;11 cells. Put plainly: Cell viability assay (CellTiter-Glo) in RS4;11 cell line. In kind it is cell-based. Particulars: 24 hours, 10% Human Serum, 50% decrease in cell viability.
Description: as §1, §2

As to `CC1(C)CC(c2ccc(Cl)cc2)=C2CN3CCN(c4ccc(C(=O)NS(=O)(=O)c5ccc(NC[C@H]6CC[C@H](O)CO6)c([N+](=O)[O-])c5)c(N5CCCOc6nc7[nH]ccc7cc65)c4)C[C@H]3COCCCO[C@@H]2C1` [Example 12, 4-((4aS,10aR)-14-(4-chlorophenyl)-12,12-dimethyl-1,2,4a,5,8,9,10a,11,13,15-decahydro-7H,12H-benzo[f]pyrazino[2,1-c][1,8]dioxa[4]azacycloundecin-3(4H)-yl)-2-(3,4-dihydro-2H-pyrrolo[3′,2′:5,6]pyrido[2,3-b][1,4]oxazepin-1(7H)-yl)-N-((4-((((2R,5S)-5-hydroxytetrahydro-2H-pyran-2-yl)methyl)amino)-3-nitrophenyl)sulfonyl)benzamide], the EC50 with Molt-4 cells was found to be 823 nM; in the experiment on RS4;11 cells, 0.966 nM.

In the case of `CO[C@H]1CC[C@H](CNc2ccc(S(=O)(=O)NC(=O)c3ccc(N4CCN5CC6=C(c7ccc(Cl)cc7)CC(C)(C)C[C@H]6OCCCOC[C@@H]5C4)cc3N3CCCOc4nc5[nH]ccc5cc43)cc2[N+](=O)[O-])OC1` [Example 13, 4-((4aS,10aR)-14-(4-chlorophenyl)-12,12-dimethyl-1,2,4a,5,8,9,10a,11,13,15-decahydro-7H,12H-benzo[f]pyrazino[2,1-c][1,8]dioxa[4]azacycloundecin-3(4H)-yl)-2-(3,4-dihydro-2H-pyrrolo[3′,2′:5,6]pyrido[2,3-b][1,4]oxazepin-1(7H)-yl)-N-((4-((((2R,5S)-5-methoxytetrahydro-2H-pyran-2-yl)methyl)amino)-3-nitrophenyl)sulfonyl)benzamide], the concentration for a half-maximal effect (EC50) stood at 1700 nM in the experiment on Molt-4 cells and 2.95 nM with RS4;11 cells.

`CC1(C)CC(c2ccc(Cl)cc2)=C2CN3CCN(c4ccc(C(=O)NS(=O)(=O)c5ccc(NC[C@H]6C[C@](O)(C7CCC7)C6)c([N+](=O)[O-])c5)c(N5CCCOc6nc7[nH]ccc7cc65)c4)C[C@H]3COCCCO[C@@H]2C1` [Example 15, 4-((4aS,10aR)-14-(4-chlorophenyl)-12,12-dimethyl-1,2,4a,5,8,9,10a,11,13,15-decahydro-7H,12H-benzo[f]pyrazino[2,1-c][1,8]dioxa[4]azacycloundecin-3(4H)-yl)-2-(3,4-dihydro-2H-pyrrolo[3′,2′:5,6]pyrido[2,3-h][1,4]oxazepin-1(7H)-yl)-N-((4-((((1s,3s)-1-hydroxy-[1,1′-bi(cyclobutan)]-3-yl)methyl)amino)-3-nitrophenyl)sulfonyl)benzamide]: the concentration giving a half-maximal response (EC50) with Molt-4 cells is 2550 nM; in the experiment on RS4;11 cells, 5.64 nM.

Turning to `CC1(C)CC(c2ccc(Cl)cc2)=C2CN3CCN(c4ccc(C(=O)NS(=O)(=O)c5ccc(NC[C@H]6C[C@](O)(CF)C6)c([N+](=O)[O-])c5)c(N5CCCOc6nc7[nH]ccc7cc65)c4)C[C@H]3COCCCO[C@@H]2C1` [Example 16, 4-((4aS,10aR)-14-(4-chlorophenyl)-12,12-dimethyl-1,2,4a,5,8,9,10a,11,13,15-decahydro-7H,12H-benzo[f]pyrazino[2,1-c][1,8]dioxa[4]azacycloundecin-3(4H)-yl)-2-(3,4-dihydro-2H-pyrrolo[3′,2′:5,6]pyrido[2,3-h][1,4]oxazepin-1(7H)-yl)-N-((4-((((1s,3s)-3-(fluoromethyl)-3-hydroxycyclobutyl)methyl)amino)-3-nitrophenyl)sulfonyl)benzamide], the EC50 is 1260 nM in the experiment on Molt-4 cells and 1.51 nM in the experiment with RS4;11 cells.

For the compound `CC1(C)CC(c2ccc(Cl)cc2)=C2CN3CCN(c4ccc(C(=O)NS(=O)(=O)c5ccc(NCC6(O)COC6)c([N+](=O)[O-])c5)c(N5CCCOc6nc7[nH]ccc7cc65)c4)C[C@H]3COCCCO[C@@H]2C1` [Example 17, 4-((4aS,10aR)-14-(4-chlorophenyl)-12,12-dimethyl-1,2,4a,5,8,9,10a,11,13,15-decahydro-7H,12H-benzo[f]pyrazino[2,1-c][1,8]dioxa[4]azacycloundecin-3(4H)-yl)-2-(3,4-dihydro-2H-pyrrolo[3′,2′:5,6]pyrido[2,3-b][1,4]oxazepin-1(7H)-yl)-N-((4-(((3-hydroxyoxetan-3-yl)methyl)amino)-3-nitrophenyl)sulfonyl)benzamide], the 50% effective concentration (EC50) with Molt-4 cells was determined as 723 nM; in the experiment on RS4;11 cells it was 2.82 nM.
